Consider eight molecules from ChEMBL document CHEMBL6078647 (J Med Chem, 2024).

The target of data set [1] is T1, Type-1 angiotensin II receptor (Homo sapiens) (UniProt P30556).
T1 sequence (whole entry): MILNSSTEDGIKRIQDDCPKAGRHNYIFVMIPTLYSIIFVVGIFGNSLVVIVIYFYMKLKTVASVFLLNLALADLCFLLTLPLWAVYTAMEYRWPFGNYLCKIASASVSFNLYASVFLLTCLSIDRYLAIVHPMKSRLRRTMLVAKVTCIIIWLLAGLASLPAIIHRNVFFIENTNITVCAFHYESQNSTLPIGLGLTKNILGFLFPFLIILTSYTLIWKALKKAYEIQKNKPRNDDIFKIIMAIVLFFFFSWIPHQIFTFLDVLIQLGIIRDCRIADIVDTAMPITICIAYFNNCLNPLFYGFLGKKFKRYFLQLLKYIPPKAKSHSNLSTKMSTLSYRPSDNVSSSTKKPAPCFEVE
The data set can be described thus: Agonist activity at Flag-tagged AT1R (unknown origin) extracted from HEK293T cell membrane co expressing YPET-ARRB1 assessed as beta-arrestin 1 recruitment using NanoGlo as substrate preincubated for 30 mins followed by substrate addition for 10 mins by BRET assay. The class given is functional, cell membranes.

Data set [2] has as its target T1, Type-1 angiotensin II receptor (Homo sapiens). The data set can be described thus: Agonist activity at Flag-tagged AT1R (unknown origin) extracted from HEK293 cell membrane co expressing YPET-ARRB1 assessed as beta-arrestin 1 recruitment at 1 uM by measuring maximum efficacy using NanoGlo as substrate preincubated for 30 mins followed by substrate addition for 10 mins by BRET assay. Type of data set: functional, cell membranes. The settings on record: filed as agonist. A general note: Arrestin recruitment assays detect the binding of arrestin to an activated receptor.

The target is the same in data set [3]. The data set can be described thus: Agonist activity at Flag-tagged AT1R (unknown origin) extracted from HEK293 cell membrane co expressing YPET-ARRB2 assessed as beta-arrestin 2 recruitment using NanoGlo as substrate preincubated for 30 mins followed by substrate addition for 10 mins by BRET assay. Type of data set: functional, cell membranes.
For data set [4] the target is unchanged. The data set can be described thus: Agonist activity at Flag-tagged AT1R (unknown origin) extracted from HEK293 cell membrane co expressing YPET-ARRB2 assessed as beta-arrestin 2 recruitment at 1 uM by measuring maximum efficacy using NanoGlo as substrate preincubated for 30 mins followed by substrate addition for 10 mins by BRET assay. The class given is functional, cell membranes. Conditions: filed as agonist.

Data set [5] shares this target. The data set can be described thus: Agonist activity at AT1R (unknown origin) extracted from HEK293 cell membrane coexpressing NLuc and Venus-miniG assessed as miniGq protein recruitment at 1 uM using NanoGlo as substrate preincubated for 30 mins followed by substrate addition for 10 mins by BRET assay. Type of data set: functional, cell membranes. Conditions: time 40.0 min.

For data set [6] the target is unchanged. The data set can be described thus: Induction of human NLuc-tagged AT1R (unknown origin) internalization in HEK293 cells co expressing venus-MP using NanoGlo as substrate preincubated for 30 mins followed by substrate addition for 10 mins by BRET assay. The class given is functional.
For data set [7], the system named is Cerebral artery. The data set can be described thus: Vaso-constriction activity in male wistar rat middle cerebral artery assessed as arterial contraction. The class given is functional, tissue-based.
The target in data set [8] is T1, Type-1 angiotensin II receptor (Homo sapiens). The data set can be described thus: Binding affinity to human GFP-tagged AT1R (unknown origin) extracted from HEK293 cell membrane assessed as colocalization of AT1R in endocytic vesicles at 50 nM incubated for 30 mins by epifluorescence microscopic analysis. The settings on record: filed as agonist. Type of data set: cell membranes.

For data set [9], the target named is T2, Type-2 angiotensin II receptor (Homo sapiens) (UniProt P50052).
T2 sequence (whole entry): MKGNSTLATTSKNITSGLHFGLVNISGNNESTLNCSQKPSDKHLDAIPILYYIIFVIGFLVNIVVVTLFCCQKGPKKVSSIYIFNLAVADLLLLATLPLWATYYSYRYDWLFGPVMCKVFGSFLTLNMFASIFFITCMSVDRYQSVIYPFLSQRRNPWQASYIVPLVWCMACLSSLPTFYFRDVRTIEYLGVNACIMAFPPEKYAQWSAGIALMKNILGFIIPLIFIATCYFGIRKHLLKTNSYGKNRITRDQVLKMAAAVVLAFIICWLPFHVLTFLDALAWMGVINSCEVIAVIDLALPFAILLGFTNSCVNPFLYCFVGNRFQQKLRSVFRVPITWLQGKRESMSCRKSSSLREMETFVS
The data set can be described thus: Binding affinity to human GFP-tagged AT2R extracted from HEK293 cell membrane assessed as colocalization of AT2R in plasma membrane at 50 nM incubated for 30 mins by epifluorescence microscopic analysis. The class given is cell membranes. Conditions: filed as agonist.

Data set [10] can be described thus: Fluorescence property of compound in HEPES buffer assessed as quantum yield. Type of data set: physicochemical.
The test system of data set [11] is Cerebral artery. The data set can be described thus: Vaso-constriction activity in male wistar rat middle cerebral artery assessed as arterial contraction at 1 uM. The class given is functional, tissue-based.
Data set [12] concerns Cerebral artery. The data set can be described thus: Vaso-constriction activity in male wistar rat middle cerebral artery assessed as arterial contraction at 10 nM. Type of data set: functional, tissue-based.
Data set [13] addresses T3, Type-1 angiotensin II receptor (Homo sapiens, UniProt P30556).
T3 sequence (P30556 whole entry): T1 sequence (whole entry)
The data set can be described thus: Binding affinity to human AT1R extracted from HEK293T cell membrane assessed as inhibition constant in presence of [125I][Sar1 Ile8]-angiotensin II by competitive radioligand binding assay. The class given is cell membranes.

In data set [14] the target is T4, Type-2 angiotensin II receptor (Homo sapiens, UniProt P50052).
T4 sequence (P50052 whole entry): T2 sequence (whole entry)
The data set can be described thus: Binding affinity to human AT2R extracted from HEK293T cell membrane assessed as inhibition constant in presence of [125I][Sar1 Ile8]-angiotensin II by competitive radioligand binding assay. Type of data set: cell membranes.

For a further data set, the species on record is Homo sapiens. The data set can be described thus: Selectivity index, ratio of Ki for binding affinity to human AT1R extracted from HEK293T cell membrane in presence of [125I][Sar1 Ile8]-angiotensin II by competitive radioligand binding assay to Ki for binding affinity to human AT2R extracted from HEK293T cell membrane in presence of [125I][Sar1 Ile8]-angiotensin II by competitive radioligand binding assay.

Data set [15] deals with T1, Type-1 angiotensin II receptor (Homo sapiens). The data set can be described thus: Binding affinity to human GFP-tagged AT1R (unknown origin) extracted from HEK293 cell membrane assessed as colocalization of AT1R in endocytic vesicles at 100 nM incubated for 30 mins by epifluorescence microscopic analysis. The class given is cell membranes.
Data set [16] deals with T2, Type-2 angiotensin II receptor (Homo sapiens). The data set can be described thus: Binding affinity to human GFP-tagged AT2R extracted from HEK293 cell membrane assessed as colocalization of AT2R in plasma membrane at 100 nM incubated for 30 mins by epifluorescence microscopic analysis. Type of data set: cell membranes.
The test system of data set [17] is Cerebral artery. The data set can be described thus: Vaso-constriction activity in male wistar rat middle cerebral artery assessed as arterial contraction at 1 uM in presence of losartan. The class given is functional, tissue-based.
Data set [18] has as its target T1, Type-1 angiotensin II receptor (Homo sapiens). The data set can be described thus: Agonist activity at Flag-tagged AT1R (unknown origin) extracted from HEK293 cell membrane assessed as increase in intracellular calcium at >100 nM incubated for 30 mins by microplate reader analysis. Type of data set: functional, cell membranes. Conditions: filed as agonist. On the technique in general: Calcium flux is commonly read through the fluorescence of an indicator in the cells.

Data set [19] concerns the target T2, Type-2 angiotensin II receptor (Homo sapiens). The data set can be described thus: Binding affinity to human GFP-tagged AT2R extracted from HEK293 cell membrane assessed as colocalization of AT2R in plasma membrane at 30 nM incubated for 30 mins by epifluorescence microscopic analysis. The settings on record: filed as agonist. The class given is cell membranes.

The target is the same in data set [20]. The data set can be described thus: Binding affinity to GFP-tagged AT2R (unknown origin) extracted from HEK293 cell membrane assessed as increase in median red fluorescence intensity incubated for 15 mins by flow cytometric analysis. The class given is cell membranes. The settings on record: filed as agonist. (A flow cytometer gives signals particle by particle.)

The source made the active and inactive calls. No cut-off for these calls is given here. Square brackets hold non-standard residues; d marks the D form. Peptide text beside a SMILES is read from it. * marks the point of attachment. ξ: configuration not given here. X1 = C[N+]1=C(/C=C/C=C2\N(CCCCCC(=O)*)c3ccccc3C2(C)C)C(C)(C)c2ccccc21; PEG2 = NCCOCCOCCC(=O)O; ξD = NC(CC(=O)O)C(=O)O Some results are limits rather than exact numbers.

For the molecule `CC[C@H](C)[C@H](NC(=O)[C@H](Cc1ccc(O)cc1)NC(=O)[C@@H](NC(=O)[C@H](CCCN=C(N)N)NC(=O)CNC)C(C)C)C(=O)N[C@@H](Cc1c[nH]cn1)C(=O)N1CCC[C@H]1C(=O)N[C@@H](C)C(=O)O`, the Activity entry in data set [1] (HEK293, filed as agonist) is “Dose-dependent-effect”; in [3] (filed as agonist), “Dose-dependent-effect”. In addition, the Emax in [2] came out at 0.031 a.u; in [4] it was 0.043 a.u. Also, the outcome (in data set [5]; in the data set on Cerebral artery [7]) was inactive. Further, the outcome in data set [6] (filed as agonist), in data set [8] and in data set [9] was Active.

In the case of `CC[C@H](C)[C@H](NC(=O)[C@H](Cc1ccc(O)cc1)NC(=O)[C@@H](NC(=O)[C@H](CCCNC(=N)N)NC(=O)[C@H](CC(=O)O)NC(=O)CCCCCN1/C(=C\C=C\C2=[N+](C)c3ccccc3C2(C)C)C(C)(C)c2ccccc21)C(C)C)C(=O)N[C@@H](Cc1c[nH]cn1)C(=O)N1CCC[C@H]1C(=O)N[C@@H](Cc1ccccc1)C(=O)O`, the Activity in data set [10] is listed as 0.08. Also, the outcome in the data set on Cerebral artery [11] and in the data set with Cerebral artery [12] was Active.

Regarding `CC[C@H](C)[C@H](NC(=O)[C@H](Cc1ccc(O)cc1)NC(=O)[C@@H](NC(=O)[C@H](CCCNC(=N)N)NC(=O)[C@H](CC(=O)O)NC(=O)CCOCCOCCNC(=O)CCCCCN1/C(=C\C=C\C2=[N+](C)c3ccccc3C2(C)C)C(C)(C)c2ccccc21)C(C)C)C(=O)N[C@@H](Cc1c[nH]cn1)C(=O)N1CCC[C@H]1C(=O)N[C@@H](Cc1ccccc1)C(=O)O`, the Activity in data set [10] stood at 0.068. In addition, the outcome in the data set on Cerebral artery [11] and in the data set with Cerebral artery [12] was Active.

For orientation: pKi means the negative decadic logarithm of the Ki, by convention in mol/L. Take `CC[C@H](C)[C@H](NC(=O)[C@H](Cc1ccc(O)cc1)NC(=O)[C@@H](NC(=O)[C@H](CCCNC(=N)N)NC(=O)CN(C)C(=O)CCOCCOCCNC(=O)CCCCCN1/C(=C\C=C\C2=[N+](C)c3ccccc3C2(C)C)C(C)(C)c2ccccc21)C(C)C)C(=O)N[C@@H](Cc1c[nH]cn1)C(=O)N1CCC[C@H]1C(=O)N[C@@H](C)C(=O)O`: the pKi in data set [13] (hek293t) was less than 5. Besides, the Ki is more than 10000 nM in data set [13] (read-out: Ki), 22.6 nM in [14] (read-out: Ki) and 16.2 nM in data set [14] (read-out: pKi (converted)). In addition, the Ratio Ki in the data set filed under Homo sapiens was more than 500. The Activity in [10] was found to be 0.058. Further, the outcome (in data set [5] (filed as agonist); in the data set with Cerebral artery [11]) was Active. Also, the outcome in data set [15] and in data set [16] was inactive.

As to `CC[C@H](C)[C@H](NC(=O)[C@@H](NC(=O)[C@H](CC(=O)O)NC(=O)[C@@H]1CCCN1C(=O)[C@H](Cc1c[nH]cn1)NC(=O)[C@H](Cc1ccccc1)NC(=O)[C@H](Cc1ccc(O)cc1)NC(=O)CCCCCN1/C(=C\C=C\C2=[N+](C)c3ccccc3C2(C)C)C(C)(C)c2ccccc21)C(C)C)C(=O)N[C@@H](CCCNC(=N)N)C(=O)O` (X1-YFHPDVIR-OH), the Activity in data set [10] turned out to be 0.101. Besides, the outcome in data set [1] (HEK293), in data set [3] and in data set [6] was inactive. In the data set on Cerebral artery [17], the outcome was Active.

For the molecule `CC[C@H](C)[C@H](NC(=O)[C@H](Cc1ccc(O)cc1)NC(=O)[C@@H](NC(=O)[C@H](CCCNC(=N)N)NC(=O)CN(C)C(=O)CCCCCN1/C(=C\C=C\C2=[N+](C)c3ccccc3C2(C)C)C(C)(C)c2ccccc21)C(C)C)C(=O)N[C@@H](Cc1c[nH]cn1)C(=O)N1CCC[C@H]1C(=O)N[C@@H](C)C(=O)O`, the Ki in [13] (read-out: Ki) is 5430 nM; in data set [13] (read-out: pKi (converted)), 5130 nM; in data set [14] (read-out: Ki), 4.23 nM; in data set [14] (read-out: pKi (converted)), 3.31 nM. Also, the Ratio Ki in the data set listed under Homo sapiens is 1280. The Activity in data set [10] is given as 0.076; in data set [15] (filed as agonist), “Active; Scarce Colocalization Of Compound Was Observed”. For the same molecule, the result (in [5] (filed as agonist); in [18]; in the data set on Cerebral artery [11]; in data set [19]; in data set [20]) was Active.

For the molecule H-YFHPDVIR-OH, the outcome (in data set [1] (HEK293); in [3]; in data set [6]; with Cerebral artery [7]) was inactive.

Turning to `CC[C@H](C)[C@H](NC(=O)[C@@H](NC(=O)C(CC(=O)O)NC(=O)[C@@H]1CCCN1C(=O)[C@H](Cc1c[nH]cn1)NC(=O)[C@H](Cc1ccccc1)NC(=O)[C@H](Cc1ccc(O)cc1)NC(=O)CCOCCOCCNC(=O)CCCCCN1/C(=C\C=C\C2=[N+](C)c3ccccc3C2(C)C)C(C)(C)c2ccccc21)C(C)C)C(=O)N[C@@H](CCCNC(=N)N)C(=O)O` (stereo partly specified) ({X1-PEG2}-YFHP[ξD]VIR-OH), the Activity in [10] turned out to be 0.064. In addition, the result in data set [1] (HEK293), in data set [3] and in data set [6] was inactive. Moreover, the outcome in the data set with Cerebral artery [17] was Active.
